Reference: patent US20220169632A1, “METHODS AND MATERIALS FOR INCREASING OR MAINTAINING NICOTINAMIDE MONONUCLEOTIDE ADENYLYL TRANSFERASE-2 (NMNAT2) POLYPEPTIDE LEVELS” (University of Pittsburgh - Of the Commonwealth System of …, priority 2019, published 2022)

What follows are compounds tested on NMNAT2-V5 polypeptide (assay: NMNAT2-V5 polypeptide expression in transfected Beas2B cells (Western blot), dose dependent, 24 h). Details: Beas2B cells transfected with NMNAT2-V5 plasmid, compound for 24 hours, read-out: A: compound efficacy (IC50) for NMNAT2 activation.
Assay type: cell-based
Experimental: FIG. 1. Beas2B cells were transfected with NMNAT2-V5 plasmid. 24 hours later, cells were treated with compounds in a dose dependent manner (0, 1, 5, and 25 μM) for additional 24 hours. Cells were then collected and assayed for NMNAT2-V5 protein expression.
Selected compounds were tested in vitro. Briefly, Beas2B cells were transfected with NMNAT2-V5 plasmid. 24 hours later, cells were treated with a test compound in a dose dependent manner for additional 24 hours. Cells were then collected and assayed for NMNAT2-V5 polypeptide expression. Results of the assay are shown in Table A. Western blots showing levels of NMNAT2-V5 polypeptide for selected compounds are shown in FIG. 1.

SMILES | IC50
CN(CCc1nsc(-c2ccc(C(=O)NCc3ccc4c(c3)OCO4)cc2)n1)C(=O)c1ccccc1 [BC18121] | ≥ 25 µM
N#Cc1nc(-c2ccc(COc3ccccc3)s2)sc1OCCc1ccc(ON)cc1 [BC18135] | ≥ 25 µM
O=C(Cn1c(=O)[nH]c2ccccc2c1=O)NCc1ccncc1 [BC18122] | 5 to 25 µM
O=C(CSC1=Nc2ccccc2C2=NC(CCC(=O)N3CCN(c4ccccc4)CC3)C(=O)C12)NCC1CCCO1 (stereo not shown) [BC18130] | 5 to 25 µM
O=C(COc1ccc(F)cc1)N1CCN(Cc2cccc(-c3n[nH]c(-c4cccc(Cl)c4)n3)c2)CC1 [BC18124] | < 5 µM
COc1ccc(OCC(=O)Nc2ccc3c(c2)nc(CCNC(=O)c2cccs2)n3C)cc1 [BC18118] | ≥ 25 µM
Cc1ccc2onc(CNC(=O)NCc3cccc(Cl)c3)c2c1 [BC18125] | < 5 µM

Each compound was assayed on NMNAT2 (assay: NMNAT2-Hibit nano-luciferase activity in transfected U87MG cells, 5 μM, 48 hours). Details: NMNAT2-Hibit luciferase plasmid, 48 hours (Table D).
Assay type: cell-based
Experimental: Selected compounds were tested in vitro. Briefly, U87MG cells were transfected with NMNAT2-Hibit luciferase plasmid. Cells were treated with test compound at 5 μM for 48 hours. Cells were then collected and assayed for nano-luciferase activity.

SMILES | D: compound efficacy for NMNAT2 activation; increase in NMNAT2 luciferase activity
Cc1ccc(CNC(=O)Cn2cc(C(=O)c3ccncc3)c(=O)c3cc(C)ccc32)cc1 [BC181250] | + (“+” <20% increase in NMNAT2 luciferase activity.)
Cc1ccc(C)c(Cn2cc(CCC(=O)NCc3ccco3)c3ccccc32)c1 [BC181245] | ++ (“++” >20% and <100% increase in NMNAT2 luciferase activity.)
O=C(Cn1cc(C(=O)C2CCCCC2)c2ccccc21)NCc1ccccc1 [BC181221] | + (“+” <20% increase in NMNAT2 luciferase activity.)
O=C(Cn1cc(C(=O)c2ccco2)c2ccccc21)NCc1ccccc1 [BC181223] | + (“+” <20% increase in NMNAT2 luciferase activity.)
CC(=O)c1cn(CC(=O)NCc2ccc(C)cc2)c2ccccc12 [BC181267] | + (“+” <20% increase in NMNAT2 luciferase activity.)
Cc1cc2c(=O)c(C(=O)c3ccncc3)cn(CC(=O)NCc3ccccc3)c2cc1C [BC181254] | ++ (“++” >20% and <100% increase in NMNAT2 luciferase activity.)
COCCNC(=O)CCCc1cn(Cc2ccc(C)cc2)c2ccccc12 [BC181234] | ++ (“++” >20% and <100% increase in NMNAT2 luciferase activity.)
O=C(Cn1cc(C(=O)C(F)(F)F)c2ccccc21)NCc1ccccc1 [BC181201] | +++ (“+++” >100% increase in NMNAT2 luciferase activity.)
Cc1ccc(C)c(NC(=O)Cn2cc(C(=O)c3ccccc3)c3ccccc32)c1 [BC181211] | ++ (“++” >20% and <100% increase in NMNAT2 luciferase activity.)
O=C(Cn1cc(C(=O)C2CCCCC2)c2ccccc21)NCc1ccco1 [BC181220] | +++ (“+++” >100% increase in NMNAT2 luciferase activity.)
CC1CCCC(C)N1C(=O)Cn1cc(C(=O)c2ccccc2)c2ccccc21 (stereo not shown) [BC181219] | ++ (“++” >20% and <100% increase in NMNAT2 luciferase activity.)
Cc1ccc(Cn2cc(CCCC(=O)NC(C)C)c3ccccc32)cc1 [BC181232] | + (“+” <20% increase in NMNAT2 luciferase activity.)
Cc1ccc(C)c(Cn2cc(CCC(=O)NCC3=CC=CC3)c3ccccc32)c1 [BC181246] | ++ (“++” >20% and <100% increase in NMNAT2 luciferase activity.)
Cc1ccc(NC(=O)Cn2cc(C(=O)c3ccccc3)c3ccccc32)cc1 [BC181209] | + (“+” <20% increase in NMNAT2 luciferase activity.)
CC(=O)c1cn(CC(=O)NCCn2ccc3ccc(C)cc32)c2ccccc12 [BC181268] | ++ (“++” >20% and <100% increase in NMNAT2 luciferase activity.)
O=C(Cn1cc(C(=O)c2ccncc2)c(=O)c2cc(F)ccc21)NCc1ccccc1 [BC181253] | ++ (“++” >20% and <100% increase in NMNAT2 luciferase activity.)
Cc1ccc2c(c1)c(=O)c(C(=O)c1ccncc1)cn2CC(=O)NCc1ccc(F)cc1 [BC181252] | ++ (“++” >20% and <100% increase in NMNAT2 luciferase activity.)
CC1CCN(C(=O)Cn2cc(C(=O)c3ccccc3)c3ccccc32)CC1 [BC181205] | + (“+” <20% increase in NMNAT2 luciferase activity.)
COc1ccc(Cn2cc(C(CC(=O)NCc3ccco3)C(C)(C)C)c3ccccc32)cc1 (stereo not shown) [BC181263] | ++ (“++” >20% and <100% increase in NMNAT2 luciferase activity.)
Cc1ccc(Cn2cc(C(CC(=O)NCc3ccco3)C(C)C)c3ccccc32)cc1 (stereo not shown) [BC181265] | + (“+” <20% increase in NMNAT2 luciferase activity.)
Cc1ccccc1Cn1cc(CCC(=O)NCc2ccco2)c2ccccc21 [BC181237] | ++ (“++” >20% and <100% increase in NMNAT2 luciferase activity.)

SMILES | D: compound efficacy for NMNAT2 activation; increase in NMNAT2 luciferase activity
O=C(Cn1cc(C(=O)c2ccncc2)c(=O)c2cc(Br)ccc21)NCc1ccccc1 [BC181256] | + (“+” <20% increase in NMNAT2 luciferase activity.)
O=C(Cn1cc(C(=O)C2CC2)c2ccccc21)NCc1ccccc1 [BC181203] | ++ (“++” >20% and <100% increase in NMNAT2 luciferase activity.)
CCN(CC)C(=O)C(=O)c1cn(CC(=O)NCCc2ccccc2)c2ccccc12 [BC181227] | + (“+” <20% increase in NMNAT2 luciferase activity.)
O=C(Cn1cc(C(=O)c2ccccc2)c2ccccc21)NCc1ccc2c(c1)OCO2 [BC181216] | + (“+” <20% increase in NMNAT2 luciferase activity.)
COCCNC(=O)Cn1cc(C(=O)c2ccccc2)c2ccccc21 [BC181214] | + (“+” <20% increase in NMNAT2 luciferase activity.)
O=C(Cn1cc(C(=O)c2ccccc2)c2ccccc21)NCc1ccc2c(c1)OCCCO2 [BC181257] | + (“+” <20% increase in NMNAT2 luciferase activity.)
O=C(Cn1cc(C(=O)c2ccccc2)c2ccccc21)Nc1ccc(Br)cc1 [BC181215] | + (“+” <20% increase in NMNAT2 luciferase activity.)
CC(=O)c1cn(CC(=O)NCc2ccncc2)c2ccccc12 [BC181266] | + (“+” <20% increase in NMNAT2 luciferase activity.)
Cc1ccc(Cn2cc(C(CC(=O)NCc3ccco3)c3ccc(C)cc3)c3ccccc32)cc1 (stereo not shown) [BC181262] | ++ (“++” >20% and <100% increase in NMNAT2 luciferase activity.)
O=C(Cn1cc(C(=O)c2ccccc2)c2ccccc21)NCC1=CC=CC1 [BC181207] | ++ (“++” >20% and <100% increase in NMNAT2 luciferase activity.)
CCc1cccc2c(C(=O)C(=O)NCCc3ccccc3)cn(Cc3ccccc3)c12 [BC181228] | + (“+” <20% increase in NMNAT2 luciferase activity.)
Cc1ccccc1Cn1cc(CCC(=O)NCC2=CC=CC2)c2ccccc21 [BC181244] | ++ (“++” >20% and <100% increase in NMNAT2 luciferase activity.)
Cc1ccccc1Cn1cc(CCC(=O)NCC2=CC=CC2)c2ccccc21 [BC181238] | ++ (“++” >20% and <100% increase in NMNAT2 luciferase activity.)
Cc1ccc(Cn2cc(CCC(=O)NCc3ccco3)c3ccccc32)cc1 [BC181240] | + (“+” <20% increase in NMNAT2 luciferase activity.)
O=C(CC(CCc1ccccc1)c1cn(Cc2ccccc2)c2ccccc12)NCc1ccco1 (stereo not shown) [BC181264] | + (“+” <20% increase in NMNAT2 luciferase activity.)
Cc1ccc(Cn2cc(CCC(=O)NCC3=CC=CC3)c3ccccc32)cc1 [BC181239] | + (“+” <20% increase in NMNAT2 luciferase activity.)
O=C(Cn1cc(C(=O)C2=CC=CC2)c2ccccc21)NCc1ccccc1 [BC181204] | ++ (“++” >20% and <100% increase in NMNAT2 luciferase activity.)
Cc1ccc(Cn2cc(C(CC(=O)NCc3ccco3)c3ccc(C)cc3)c3ccccc32)cc1 (stereo not shown) [BC181258] | ++ (“++” >20% and <100% increase in NMNAT2 luciferase activity.)
Cc1cccc(NC(=O)Cn2cc(C(=O)c3ccccc3)c3ccccc32)c1C [BC181210] | ++ (“++” >20% and <100% increase in NMNAT2 luciferase activity.)
Cc1ccccc1Cn1cc(CCC(=O)NCc2ccco2)c2ccccc21 [BC181241] | + (“+” <20% increase in NMNAT2 luciferase activity.)
Cc1ccc(Cn2cc(C(CC(=O)NCc3ccco3)c3cccc(C)c3)c3ccccc32)cc1 (stereo not shown) [BC181259] | ++ (“++” >20% and <100% increase in NMNAT2 luciferase activity.)
